According to patent US4256729A, “N,N'-Bis-(2,3-dihydroxypr opyl)-2,4,6-triiodo-5-(2-keto-L-gulonamido)isophthalamide and radiological compositions containing same” (Mallinckrodt, Inc., priority 1979, dated 1981):
Like-named read-outs stand apart in the source and are kept apart here.

Columns and labels:
Sprague Dawley rats = experiment: Acute Intracisternal Toxicity in Rats; conditions: intracisternal, 444 mg I/ml; two day observation; 95% limits 582-951
Procedure: (§1) The following pharmacological studies were conducted on N,N'-bis-(2,3-dihydroxypropyl)-2,4,6-triiodo-5-(2-keto-L-gulonamido)isophthalamide prepared by Method II (PRODUCT).
(§2) The technique described by Melartin et al. (Invest. Radiol. 5: 13-21, 1970) was utilized to evaluate lethal effects of a solution of the PRODUCT after injection into cerebrospinal fluid at the cisterna magna. Young adult male and female Sprague Dawley rats were used. After dosing, the animals were housed individually and observed for immediate reactions and periodically for a two day observation period.

in vivo [1] = conditions: rat, in vivo
Procedure: as §1, §2

dogs = experiment: Acute intracisternal Neurotoxicity in Dogs; assay type: in vivo; conditions: dosage range 200-244 mg I/kg, constant 0.5 ml/kg volume dose
Procedure: Adult dogs of either sex were employed for this procedure and were briefly anesthetized with thiopentol sodium during the injection of a solution of the compound. The PRODUCT was administered into cerebrospinal fluid at the cisterna magna at varying concentrations but at a constant 0.5 ml/kg volume dose. Animals were thereafter observed for neurotoxicity with the following results.

Solubility in water = assay type: physicochemical
Procedure: (§3) The product was dissolved in water (sterile water for injection, 1 liter). The solution was evaporated to about 800 ml under reduced pressure at 55° and treated with active charcoal (Darco G-60, 7.0 g) at room temperature overnight. The solution was filtered (first through a Whatman #4 filter paper and then through a Millipore 0.22 μ filter paper), and the clear filtrate was evaporated under reduced pressure at 50°-60° to give a white glassy solid. The product, which was dried under vacuum at 50°-60° for 5 hours, weighed 53.0 g (60% yield). The compound softens at 190°-195° and decomposes above 220°. […] Nmr and ir data are consistent with the assigned structure IX. Elemental analysis: Calcd. for C20 H26 I3 N3 O12 : C, 27.26; H, 2.97; I, 43.21; N, 4.77; Found: C, 26.92; H, 3.15; I, 42.92; N, 4.40.
2. Solubility: ≥100% w/v.

in vivo [2] = conditions: mouse, in vivo, iv
Procedure: as §1
(§4) A solution of the PRODUCT was injected into the lateral tail vein of young adult male and female Swiss mice at a rate of 1 ml/min.

Swiss mice [3] = experiment: Acute Intraveneous Toxicity in Mice; conditions: i.v., 1 ml/min, 400 mg I/ml; seven day observation; 95% limits 18,161-20,510
Procedure: as §1, §4

[4] = Stability in aqueous solution by tlc and lc analysis; assay type: physicochemical; conditions: Method I product
Procedure: as §3

[5] = system: cardiovascular and renal excretory systems; experiment: Radiographic observations in mouse (whole body radiographs after i.v. injection); assay type: in vivo; conditions: male mouse, pentobarbital anesthetized; 10,000 mg I/kg i.v. (28% I solution), 1/2 ml/minute; immediately after administration; Method I product
Procedure: A male mouse (20 g) was anesthetized with sodium pentobarbital (60 mg/kg, i.p.; Diabutal®, Diamond Laboratories).

[6] = system: cisterna magna, basal cisterns, and cervical subarachnoid space; experiment: Radiographic observations in rat (lateral radiographs of head and thorax after intracisternal injection); assay type: in vivo; conditions: male rat, pentobarbital anesthetized; 140 mg I/kg intracisternally (28% I solution); immediately and 3 minutes after administration; Method I product
Procedure: A pentobarbital anesthetized male rat received 140 mg I/kg of the N,N'-bis-(2,3-dihydroxypropyl)-2,4,6-triiodo-5-(2-keto-L-gulonamido)isophthalamide prepared by Method I, (28% I solution) intracisternally.

in vivo [7] = conditions: mouse, in vivo, icv or intrathecal
Procedure: as §1
(§5) Employing a slightly modified version of the techique developed by Haley and McCormick (Brit. J. Pharmacol. 12: 12-15, 1957), young adult male and female Swiss mice received injections of a solution of the PRODUCT directly into lateral ventricles and brain tissue.

Swiss mice [8] = experiment: Acute Intracerebral Toxicity in Mice; conditions: intracerebral, 250-400 mg I/ml; seven day observation; 95% limits 1,203-1,772
Procedure: as §1, §5

Question: For `O=C(Nc1c(I)c(C(=O)NCC(O)CO)c(I)c(C(=O)NCC(O)CO)c1I)C(=O)[C@@H](O)[C@H](O)[C@@H](O)CO` (stereo partly drawn) [IX, N,N'-Bis-(2,3-dihydroxypropyl)-2,4,6-triiodo-5-(2-keto-L-gulonamido)isophthalamide], which “LD50 /(95% Confidence Limits)” value (Sprague Dawley rats) is on record?
Answer: 744 mg I/kg

Question: And the LD50 at 48 h (in vivo [1])?
Answer: 1720 mg/kg

Question: And the “Minimum Convulsion Dose” value (dogs)?
Answer: > 244 mg I/kg

Question: What about the solubility (Solubility in water; Method II product) of the same compound?
Answer: ≥ 100 % w/v

Question: What about the solubility (Solubility in water; water, Method I product, read-out: solubility in water) of the same compound?
Answer: ≥ 1000 mg/mL

Question: And the LD50 at 168 h (in vivo [2])?
Answer: 44700 mg/kg

Question: What about the “LD50 /(95% Confidence Limits)” value (Swiss mice [3]) of the same compound?
Answer: 19,300 mg I/kg

Question: What about the “stability in aqueous solution” value [4] of the same compound?
Answer: stable in aqueous solution

Question: And the “opacification on whole body radiographs” value [5]?
Answer: opacification of the cardiovascular and renal excretory systems

Question: And the “visualization on lateral radiographs of head and thorax” value [6]?
Answer: good visualization of the cisterna magna, basal cisterns, and cervical subarachnoid space

Question: And the LD50 at 168 h (in vivo [7])?
Answer: 3380 mg/kg

Question: And the “LD50 /(95% Confidence Limits)” value (Swiss mice [8])?
Answer: 1,460 mg I/kg
